Data: the supplement of paper PMC10307832

Assays:
Assay in all cases: relative viability (nuclei count vs DMSO), 5 days (fraction); higher = more cells survive
AGI-6780 + Crizotinib = compound: O=C(Nc1cccc(C(F)(F)F)c1)Nc1cc(S(=O)(=O)NC2CC2)ccc1-c1ccsc1 [AGI-6780] + C[C@@H](Oc1cc(-c2cnn(C3CCNCC3)c2)cnc1N)c1c(Cl)ccc(F)c1Cl [Crizotinib] (partner 1 µM)
Summary of the method: (§1)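 Cells from lung cancer lines were seeded into 1536-well plates and, one day later, dosed by pin tool. Treatments were either a single drug or a fixed dose of an anchor drug with five library-drug doses (not always all listed) in √10 steps. After 5 days, nuclei were stained in a one-step fixation (final 0.05% Triton X-100, 1% formaldehyde, 1 ug/ml Hoechst) and counted on 4× images, and relative viability is the treated-to-vehicle nuclei ratio, as the median of duplicate plates.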

AGI-6780 + Phenformin = compound: O=C(Nc1cccc(C(F)(F)F)c1)Nc1cc(S(=O)(=O)NC2CC2)ccc1-c1ccsc1 [AGI-6780] + N=C(N)NC(=N)NCCc1ccccc1 [Phenformin] (partner 250 µM)
Summary of the method: as §1

AGI-6780 + Navitoclax = compound: O=C(Nc1cccc(C(F)(F)F)c1)Nc1cc(S(=O)(=O)NC2CC2)ccc1-c1ccsc1 [AGI-6780] + CC1(C)CCC(c2ccc(Cl)cc2)=C(CN2CCN(c3ccc(C(=O)NS(=O)(=O)c4ccc(N[C@H](CCN5CCOCC5)CSc5ccccc5)c(S(=O)(=O)C(F)(F)F)c4)cc3)CC2)C1 [Navitoclax] (partner 0.5 µM)
Summary of the method: as §1

AGI-6780 + Decitabine = compound: O=C(Nc1cccc(C(F)(F)F)c1)Nc1cc(S(=O)(=O)NC2CC2)ccc1-c1ccsc1 [AGI-6780] + Nc1ncn([C@H]2C[C@H](O)[C@@H](CO)O2)c(=O)n1 [Decitabine] (partner 2 µM)
Summary of the method: as §1

| Cell Line | relative viability (AGI-6780 + Crizotinib; first compound 0.08 µM) | relative viability (AGI-6780 + Crizotinib; first compound 0.253 µM) | relative viability (AGI-6780 + Crizotinib; first compound 0.8 µM) | relative viability (AGI-6780 + Crizotinib; first compound 2.53 µM) | relative viability (AGI-6780 + Crizotinib; first compound 8 µM) | relative viability (AGI-6780 + Phenformin; first compound 0.08 µM) | relative viability (AGI-6780 + Phenformin; first compound 0.253 µM) | relative viability (AGI-6780 + Phenformin; first compound 0.8 µM) | relative viability (AGI-6780 + Phenformin; first compound 2.53 µM) | relative viability (AGI-6780 + Phenformin; first compound 8 µM) | relative viability (AGI-6780 + Navitoclax; first compound 0.08 µM) | relative viability (AGI-6780 + Navitoclax; first compound 0.253 µM) | relative viability (AGI-6780 + Navitoclax; first compound 0.8 µM) | relative viability (AGI-6780 + Navitoclax; first compound 2.53 µM) | relative viability (AGI-6780 + Navitoclax; first compound 8 µM) | relative viability (AGI-6780 + Decitabine; first compound 0.08 µM) | relative viability (AGI-6780 + Decitabine; first compound 0.253 µM) | relative viability (AGI-6780 + Decitabine; first compound 0.8 µM) | relative viability (AGI-6780 + Decitabine; first compound 2.53 µM) | relative viability (AGI-6780 + Decitabine; first compound 8 µM) |
| --- | --- | --- | --- | --- | --- | --- | --- | --- | --- | --- | --- | --- | --- | --- | --- | --- | --- | --- | --- | --- |
| PC-14 | 0.902 | 0.867 | 0.971 | 0.851 | 0.928 | 0.464 | 0.665 | 0.576 | 0.581 | 0.695 | 1.06 | 0.967 | 0.849 | 1.01 | 0.952 | 0.22 | 0.226 | 0.295 | 0.217 | 0.198 |
| RERF-LC-KJ | 0.769 | 0.879 | 0.808 | 0.791 | 0.792 | 0.421 | 0.455 | 0.439 | 0.367 | 0.411 | 1.18 | 1.08 | 1.16 | 0.834 | 0.911 | 0.634 | 0.698 | 0.829 | 0.644 | 0.611 |
| SK-LU-1 | 1.01 | 0.904 | 0.629 | 0.936 | 0.878 | 0.549 | 0.555 |  | 0.404 | 0.588 | 0.904 | 0.961 | 0.418 | 0.851 | 0.955 | 0.73 | 0.63 | 0.567 | 0.583 | 0.572 |
| SK-MES-1 | 0.942 | 0.964 | 0.935 | 0.871 | 0.953 | 0.689 | 0.647 | 0.623 | 0.665 | 0.683 | 1.31 | 1.22 | 1.09 | 1.21 | 1.28 | 0.364 | 0.382 | 0.462 | 0.294 | 0.377 |
| SW 1573 | 0.786 | 0.883 | 0.912 | 0.681 | 0.815 | 0.378 | 0.36 | 0.567 |  | 0.368 | 1.21 | 1.07 | 1.14 | 0.973 | 1.14 | 0.6 | 0.449 | 0.65 | 0.417 | 0.493 |
| UMC-11 | 0.754 | 0.606 | 0.676 |  | 0.751 | 0.336 | 0.344 | 0.336 |  | 0.365 | 0.318 | 0.372 | 0.348 |  | 0.399 | 0.394 | 0.335 | 0.7 |  | 0.678 |
